Laboratory results taken from US20220233441A1, “MIC[…] SYSTEMS FOR CANNABIS EXTRACTS AND […]” (Quicksilver Scientific, Inc., priority 2019, published 2022).
“Also recorded” adds a separate entry of the source.

Assay: Formation of shelf-stable and visually clear MOIW microemulsions with different constituents
Format: physicochemical
Excerpt: A shelf-stable microemulsion may be determined in one of two ways. […] Either type of dissociation means that the microemulsion is not shelf-stable.
A visually clear microemulsion has an average particle diameter of 200 nm and less and lacks precipitated solid crystals visible to the naked eye.

| Molecule | usefulness of the constituent for forming shelf-stable and visually clear MOIW microemulsions |
| --- | --- |
| OC[C@@H](O)[C@@H](O)CO [erythritol] | not useful |
| OC[C@@H](O)[C@@H](O)[C@H](O)[C@H](O)CO [mannitol] | not useful |
| OC[C@@H](O)[C@@H](O)[C@H](O)[C@@H](O)CO [sorbitol] | not useful |
| OC[C@@H](O)[C@H](O)[C@@H](O)CO [xylitol] | not useful |
| polysorbate 20 | did not form shelf-stable and visually clear microemulsions; also recorded: not useful |
